In US11578310B2, “Method for producing CD4/CD8 double-positive T cells” (Kyoto University, priority 2016, dated 2023):

System: hematopoietic progenitor cells induced from iPS cells or ES cells
Assay: Induction of CD4/CD8 double-positive T cells from hematopoietic progenitor cells induced from pluripotent stem cells (flow cytometry)
Format: cell-based, human
Details: TKT3v 1-7 line; medium containing SB203580 alone or SDF-1α alone vs neither; FIG. 5
Description: On an ultralow-adhesion-treated 6-well plate (CORNING: #3471). TkT3V1-7. Ffl-01, Ffl-14, or KhES-3 was plated at 3×10^5 to 6×10^5 cells/well (Day 0), and the cells were cultured under hypoxic conditions (5% O2) for five days in EB medium (StemPro34 supplemented with 10 μg/ml human insulin, 5.5 μg/ml human transferrin, 5 ng/ml sodium selenite, 2 mM L-glutamine, […] α-monothioglycerol, and 50 μg/ml ascorbic acid) supplemented with 10 ng/ml BMP4, 5 ng/ml bFGF, 15 ng/ml VEGF, and 2 μM SB431542 (Day 5).
Subsequently, 50 ng/ml SCF, 30 ng/ml TPO, and 10 ng/ml Flt3L were added, and additional culture was performed for 5 to 9 days (up to Day 14).

| Substance | induction of CD4/CD8 double-positive T cells, each agent used alone |
| --- | --- |
| 4-(4-fluorophenyl)-2-(4-methylsulfonylphenyl)-5-(4-pyridyl)-1H-imidazole [SB203580] | can be produced even when each of these was used alone |
| SDF-1α | can be produced even when each of these was used alone |
